Patent US5620864A, “Acceptor for fucosyl transferase” (Health Research, Inc., priority 1992, dated 1997)

Assays:
[1] = molecular target: T1, serum α1,3-L-fucosyltransferase (Homo sapiens, UniProt P51993); assay: Assay of α1,3-fucosyltransferase with various synthetic acceptors, ovarian cancer sera as enzyme source; format: biochemical; conditions: for Relative Percent: 2'-methyl LacNAc = 100; for [14C] Fucose Incorporated (CPM): acceptor 0.3 mM, 37° C. 18 h
T1 construct: Sera were collected from healthy females and ovarian cancer patients; from tissue; host or cells: blood serum of ovarian cancer patients and healthy females
T1 sequence (P51993 35-359 limits assumed): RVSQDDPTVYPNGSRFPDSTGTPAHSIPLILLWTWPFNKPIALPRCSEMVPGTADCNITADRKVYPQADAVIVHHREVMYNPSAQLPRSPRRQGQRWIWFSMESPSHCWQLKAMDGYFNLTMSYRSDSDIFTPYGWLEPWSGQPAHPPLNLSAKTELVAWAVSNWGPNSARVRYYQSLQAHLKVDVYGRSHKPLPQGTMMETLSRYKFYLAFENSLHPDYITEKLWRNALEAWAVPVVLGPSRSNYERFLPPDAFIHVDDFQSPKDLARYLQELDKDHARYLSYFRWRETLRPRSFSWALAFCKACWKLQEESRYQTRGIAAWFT
Procedure: Sera were collected from healthy females and ovarian cancer patients admitted to Roswell Park Cancer Institute in Buffalo, N.Y., USA. Ovarian tumor tissues were obtained during surgical procedures from patients with ovarian cancer. Both sera and tissues were stored frozen at -70° C. until use.
(§1) An incubation mixture contained 50 mM HEPES-NaOH, pH 7.5, 5 mM MnC12, 7 mM ATP, 3 mM NaN3, the acceptor 0.3 mM (for serum enzyme) or 3.0 mM (for tumor enzyme), 0.125 μCi of GDP-[U-^14 C] Fuc (Sp. Act. 216 mCi/mmol) and enzyme in a total volume of 0.10 ml; the control incubation mixture had everything except the acceptor. At the end of incubation at 37° C. for 18 h, the mixture was diluted with 1 ml water and passed through Dowex-1-C1 column (1 ml in a Pasteur pipet). The column was washed twice with 1 ml water; the breakthrough and wash, which contained the [^14 C] fucosylated neutral acceptor, were collected together in a scintillation vial and counted for radioactivity using the scintillation coctail 3a70 (Research Products International, Mount Prospects, Ill.) and Beckman LS9000. The Dowex column was then eluted successively with 3 ml each of 0.1M and 0.2M NaCl; these eluates which contained the [^14 C] fucosylated sulfated acceptors, were counted for radioactivity as before. Corrections were made by subtracting the radioactivity in the water and NaCl eluates of the control incubation mixture from the corresponding test fractions. The duplicate runs of samples gave almost identical values, the difference being <5%.
The activity of serum α1,3-fucosyltransferase was measured with the specific substrate 2'-methyl LacNAc and compared with the ability of several other synthetic substrates to act as an acceptor of fucose.
When the structure of the acceptor 2'-methyl LacNAc was modified by replacing the methyl group with sulfate group in C-2', 3', 6' or 6 position and tested their ability to act as the acceptor of fucose, the following novel findings emerged. […] The β-benzyl glycoside of 3' sulfo LacNAc was quite active (168.4%) but less than the parent compound.

[2] = tested on: α1,3-L-fucosyltransferase of the soluble fraction of human ovarian tumor; assay: Assay of α1,3-fucosyltransferase with synthetic acceptors, partially purified enzyme of ovarian tumor soluble fraction; format: biochemical; conditions: for [14C] Fucose Incorporated (CPM): acceptor 3.0 mM, 37° C. 18 h
Procedure: as §1
As shown in the scheme set forth in FIG. 2, the α-L-fucosidase-free extract of the tissue (40 g), after concentration by 80% (NH4)2 SO4 precipitation was fractionated on bovine IgG glycopep-Sepharose in batches of 25 ml. After washing the column with the equilibration buffer, the bound enzyme was eluted with 1 M NaCl in the same buffer. The protein positive fractions were pooled and processed as shown in the scheme 2.0 ml of the above preparation was loaded on a Sephacryl S-200 column (Superfine:2.6 cm×88.0 cm) equilibrated at 4° C. with 50 mM Tris-HC1, pH 7.0 containing 0.15M NaCl and 0.1% Triton X-100 and eluted with the same buffer. Fractions of 3.0 ml were collected. The fucosyltransferase activity was located in the effluent fractions, by assaying first every 5th fraction and then obtaining the activity profile by assaying the alternate fractions in that range, using 2'-fucosyl LacNAc as the acceptor. […] Its elution position, which is slightly later than BSA, run separately on the same column, indicates its molecular weight as <67,000 daltons. […] The enzyme has been purified 66 fold over the soluble extract with a recovery of 6.2%. The enzyme at this stage lost its activity either kept frozen at -20° C. or left at 4° C. for more than a week. However, the enzyme at the end of the previous step was fairly stable for at least two months at 4° C. So this preparation of enzyme was used in acceptor ability comparison studies.
When α1,3-fucosyltransferase activity of the partially purified enzyme preparation from the soluble portion of ovarian tumor was measured and compared with the activity of other acceptors, the following results were obtained. 2'-methyl LacNAc, LacNAc and Galβ1, 3GlcNAc were respectively 100.0%, 60.6% and 565.5% active, indicating the presence of both α1,3 and α1,4 fucosyltransferase activities in this preparation.

[3] = tested on: α1,3-L-fucosyltransferase of the particulate fraction of ovarian tumor; assay: Assay of α1,3-fucosyltransferase with synthetic acceptors, ovarian tumor particulate fraction; format: biochemical, human; conditions: for Relative Percent: 2'-methyl LacNAc = 100; for [14C] Fucose Incorporated (CPM): acceptor 3.0 mM, 37° C. 18 h
Procedure: FIG. 2 The scheme for the preparation of the particulate and soluble fractions of human ovarian tumor.
as §1
This finding is quite different from what we found with the soluble fraction, where α1,4-fucosyltransferase activity seems to be greater than α1,3-fucosyltransferase activity. […] The different nature of the above enzymes was made further clear, when sulfated derivatives of LacNAc was tested as acceptors.

Relative Percent [1] [%]	[14C] Fucose Incorporated (CPM) [1] [CPM]	Relative Percent ([2]; 2'-methyl LacNAc = 100) [%]	[14C] Fucose Incorporated (CPM) [2] [CPM]	Relative Percent [3] [%]	[14C] Fucose Incorporated (CPM) [3] [CPM]	Relative Percent ([2]; 2'-methyl LacNAc = 100, listed as Galβ1, 3 GlcNAc) [%]	Relative Percent ([2]; 2'-methyl LacNAc = 100, listed as Galβ1, 3GlcNAc) [%]	SMILES
358.8	6207	111.6	8249	132.9	64223			CC(=O)N[C@H]1[C@H](OCc2ccccc2)O[C@H](CO)[C@@H](O[C@@H]2O[C@H](CO)[C@H](O)[C@H](O)[C@H]2O)[C@@H]1O [LacNAcβ-O--Bn]
307.9	5326	113.2	8367	149.2	71989			CO[C@H]1[C@H](O[C@H]2[C@H](O)[C@@H](NC(C)=O)[C@H](OCc3ccccc3)O[C@@H]2CO)O[C@H](CO)[C@H](O)[C@@H]1O [2'-methyl LacNAcβ-O--Bn]
166.8	2886	87.0	6432	70.0	33759			CC(=O)N[C@H]1[C@H](O[C@H]2[C@@H](O)[C@@H](CO)O[C@@H](Oc3ccc([N+](=O)[O-])cc3)[C@@H]2O)O[C@H](CO)[C@@H](O[C@@H]2O[C@H](CO)[C@H](O)[C@H](O)[C@H]2O)[C@@H]1O [LacNAcβ1,3Ga1β-O--PNP]
13.1	227	565.5	41802	34.2	16511	566	565.5	CC(=O)N[C@H]1C(O)O[C@H](CO)[C@@H](O)[C@@H]1O[C@@H]1O[C@H](CO)[C@H](O)[C@H](O)[C@H]1O (stereo partly drawn) [Ga1β1,3G1cNAc]
